Experimental data taken from US20120190635A1, “SELECTIVE OXIDATION OF C-H BONDS OF MODIFIED SUBSTRATES BY P450 MONOOXYGENASE” (THE REGENTS OF THE UNIVERSITY OF MICHIGAN, priority 2009, published 2012).
In brackets after ≈: the same amount, converted by molar mass. Read-outs that look alike come from different tables or passages of the source.

What was measured:
PikCD50N-RhFRED [1] = target: T1, PikCD50N-RhFRED (Streptomyces venezuelae, UniProt O87605, D50N); type: biochemical; settings: for Number of products: Table 1
Deinococcus radiodurans = assay: antibacterial MIC, microtiter dilution; settings: 60 h
[2] = system: Staphylococcus aureus ATCC6538P; assay: antibacterial MIC, microtiter dilution; settings: Staphylococcus aureus, ATCC6538P, read-out: Minimal inhibitory concentration
[3] = system: Bacillus subtillis DHS5333; assay: antibacterial MIC, microtiter dilution; settings: Bacillus, DHS5333, read-out: Minimal inhibitory concentration
[4] = system: Multidrug resistant S. aureus (MRSA); assay: antibacterial MIC, microtiter dilution; settings: Staphylococcus aureus, MRSA, read-out: Minimal inhibitory concentration
Acinetobacter baumannii = assay: antibacterial MIC, microtiter dilution; settings: read-out: Minimal inhibitory concentration
Escherichia. coli TolC = assay: antibacterial MIC, microtiter dilution; settings: Escherichia coli, read-out: Minimal inhibitory concentration, E. coli W3110 TolC disruption mutant; Mueller Hinten
[5] = system: Kocuria rhizophila ATCC9341; assay: antibacterial MIC, microtiter dilution; settings: Kocuria rhizophila, ATCC9341, read-out: Minimal inhibitory concentration
S. aureus NorA = assay: antibacterial MIC, microtiter dilution; settings: Staphylococcus aureus, read-out: Minimal inhibitory concentration
PikCD50N-RhFRED [6] = target: T1, PikCD50N-RhFRED; assay: substrate binding assay, PikCD50N-RhFRED
Protocol: The unnatural cyclic carbolide substrate desosaminyl cyclododecane was synthesized to mimic the structure of the natural substrate YC-17 using a recently developed synthetic strategy (Anzai Y, et al. Functional analysis of MycG and MycCI, cytochrome P450 enzymes involved in biosyntheis of mycinamicin macrolide antibiotics. Chem. Biol. 2008 15:950-959), which was subsequently employed as a general approach to derivatize diverse alcohols with desosamine (FIG. 6). The standard assay contains 5 μM PikCD50N—RhFRED, 0.5 mM substrate, 2.5 mM NADPH, 0.25 Unit of glucose-6-phosphate dehydrogenase, and 5 mM glucose-6-phosphate for NADPH regeneration in 100 μl of reaction buffer (50 mM NaH2PO4, pH 7.3, 1 mM EDTA, 0.2 mM dithioerythritol, and 10% glycerol). The reaction was carried out at 30° C. for 3 h and terminated by extraction using 3×200 μl of CHCl3. The resulting organic extract was dried by N2 and redissolved in 120 μl of methanol. The subsequent LC-MS analysis was performed on a ThermoFinnigan LTQ linear ion-trap instrument (Department of Pharmacology, University of Michigan) equipped with electrospray source and Surveyor HPLC system by using an XBridge™ C18 3.5 μm 150 mm reverse-phase HPLC column under following conditions: mobile phase (A=deionized water+0.1% formic acid, B=acetonitrile+0.1% formic acid), 20% B for 3 min, 20-100% B over 25 min, 100% B for 5 min, 100-20% B over 1 min, 20% B for 15 min; flow rate, 0.21 ml/min The substrate binding assays were performed following the previous report (Li et al., supra).
The decreased binding affinity of desosaminyl cyclododecane could result from […], an entropic penalty upon binding due to high conformational freedom of the saturated ring system, […]) lack of hydrophobic interactions between the functional groups on the macrolactone ring of […] and PikC active site residues, and/or […]) loss of some specific interactions with desosamine as observed in the co-crystal structure with PikC. […] Due to enhanced substrate conversion and ease of use in the absence of expensive exogenous redox partners, PikCD50N—RhFRED was employed to hydroxylate carbolide desosaminyl cyclododecane and all other substrates.

[7] = system: selected microbial targets; assay: antibacterial activity, summary in words; type: cell-based
Protocol: All measurements were performed in duplicate.
The bioactivity of 8 was compared with its synthetic hydroxylated products. Unexpectedly, upon installation of a hydroxyl group at either the C7/C8 or C6/C9 positions (the four authentic standards, each of which contains a pair of diastereomers), the products lost activity. […] Further analysis of these carbolides, and direct investigation of their presumed binding to ribosomal targets will provide important insights into the impact of PikC-mediated regioselective hydroxylation for development of new small molecules for treatment of microbial pathogens and other human diseases.

[8] = read-out: Minimal inhibitory concentration, Deinococcus radiodurans, Special media, 30° C.

T1 sequence (O87605 other isoform, or with tags, fused parts or gaps D50N): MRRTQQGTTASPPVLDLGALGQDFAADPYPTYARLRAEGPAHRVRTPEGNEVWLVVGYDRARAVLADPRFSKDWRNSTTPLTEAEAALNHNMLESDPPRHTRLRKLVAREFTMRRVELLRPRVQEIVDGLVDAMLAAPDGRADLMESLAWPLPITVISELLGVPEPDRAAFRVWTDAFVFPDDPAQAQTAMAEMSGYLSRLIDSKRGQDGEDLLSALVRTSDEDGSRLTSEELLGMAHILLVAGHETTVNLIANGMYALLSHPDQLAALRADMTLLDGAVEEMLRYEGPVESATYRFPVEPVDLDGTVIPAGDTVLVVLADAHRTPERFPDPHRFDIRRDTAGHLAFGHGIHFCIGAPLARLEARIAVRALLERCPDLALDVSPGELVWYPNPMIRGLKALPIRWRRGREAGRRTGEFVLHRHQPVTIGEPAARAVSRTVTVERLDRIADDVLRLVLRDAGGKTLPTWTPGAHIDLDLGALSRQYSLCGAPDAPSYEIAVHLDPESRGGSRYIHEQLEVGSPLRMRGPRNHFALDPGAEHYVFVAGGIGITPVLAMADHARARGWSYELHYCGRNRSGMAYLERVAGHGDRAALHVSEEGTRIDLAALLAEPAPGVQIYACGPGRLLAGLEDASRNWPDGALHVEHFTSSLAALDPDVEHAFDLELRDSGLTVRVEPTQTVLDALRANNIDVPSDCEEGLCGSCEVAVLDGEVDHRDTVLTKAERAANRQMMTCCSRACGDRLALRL

Row | Structure (SMILES) | Number of products (PikCD50N-RhFRED [1]; PikCD50N-RhFRED) | MIC (Deinococcus radiodurans; [8]) | MIC [2] | MIC [3] | MIC [4] | MIC (Acinetobacter baumannii) | MIC (Escherichia. coli TolC) | MIC [5] | MIC (S. aureus NorA) | number of oxidized products (PikCD50N-RhFRED [1]; PikCD50N-RhFRED) | MIC (Deinococcus radiodurans; read-out: Minimal inhibitory concentration) | Kd (PikCD50N-RhFRED [6]) | antibacterial activity in words [7] | yield and selectivity (number of product peaks) relative to 12 (PikCD50N-RhFRED [1]; PikCD50N-RhFRED) | share of monohydroxylated products oxidized at sites remote from desosamine (PikCD50N-RhFRED [1]; C7 and C6/C8 for the 12-membered ring, C7/C8 or C6/C9 for the 13-membered ring) | hydroxylation by PikC / ability to serve as substrate, in words (PikCD50N-RhFRED [1])
1 | CC1CC(N(C)C)C(O)C(OC2CCCC3CCCCC32)O1 (stereo not shown) [Compound 14, 2-(Decahydronaphthalen-1-yloxy)-4-(dimethylamino)-6-methyltetrahydro-2H-pyran-3-ol] | 0 | > 400 µM | > 400 µM | > 400 µM | > 400 µM | > 400 µM | > 400 µM | > 400 µM | > 400 µM | – | – | – | – | – | – | –
2 | CC1CC(N(C)C)C(O)C(Oc2ccc3ccc4cccc5ccc2c3c45)O1 (stereo not shown) [Compound 19, 4-(Dimethylamino)-6-methyl-2-(pyren-1-yloxy)tetrahydro-2H-pyran-3-ol] | 1 | – | 25 µM (≈ 9.39 µg/mL) | 6.2 µM (≈ 2.33 µg/mL) | 25 µM (≈ 9.39 µg/mL) | 100 µM (≈ 37.5 µg/mL) | 25 µM (≈ 9.39 µg/mL) | 25 µM (≈ 9.39 µg/mL) | 25 µM (≈ 9.39 µg/mL) | single | 25 µM (≈ 9.39 µg/mL) | > 5000 µM | – | – | – | –
3 | CCCCC#CCOC1OC(C)CC(N(C)C)C1O (stereo not shown) [Compound 16, 4-(Dimethylamino)-2-(hept-2-ynyloxy)-6-methyltetrahydro-2H-pyran-3-ol] | 0 | – | – | – | – | – | – | – | – | – | – | – | – | – | – | –
4 | CC[C@H]1OC(=O)[C@H](C)[C@@H](O[C@@H]2OC(C)CC(C)C2C)[C@@H](C)C[C@@H](C)C(=O)/C=C/[C@H]1C (stereo partly shown) [Compound 1, YC-17, reference compound] | 2 | 400 µM (≈ 169 µg/mL) | 100 µM (≈ 42.3 µg/mL) | 100 µM (≈ 42.3 µg/mL) | > 400 µM | > 400 µM | 100 µM (≈ 42.3 µg/mL) | 100 µM (≈ 42.3 µg/mL) | 100 µM (≈ 42.3 µg/mL) | – | – | – | – | – | – | –
5 | CCCCCCC#CCCOC1OC(C)CC(N(C)C)C1O (stereo not shown) [Compound 17, 2-(Dec-3-ynyloxy)-4-(dimethylamino)-6-methyltetrahydro-2H-pyran-3-ol] | 5 | > 400 µM | > 400 µM | > 400 µM | > 400 µM | > 400 µM | > 400 µM | > 400 µM | > 400 µM | – | – | 2900 µM | – | – | – | –
6 | CC1CC(N(C)C)C(O)C(OC2CCCCCCCCCCCCCC2)O1 (stereo not shown) [Compound 12, 2-(cyclopentadecyloxy)-4-(dimethylamino)-6-methyltetrahydro-2H-pyran-3-ol] | 9 | 50 µM (≈ 19.2 µg/mL) | 200 µM (≈ 76.7 µg/mL) | 100 µM (≈ 38.4 µg/mL) | 100 µM (≈ 38.4 µg/mL) | > 400 µM | 50 µM (≈ 19.2 µg/mL) | 50 µM (≈ 19.2 µg/mL) | 100 µM (≈ 38.4 µg/mL) | – | – | 243 µM | displayed some inhibitory activities | – | – | –
7 | CN(C)CCCOC1CCCCCCCCCCCCCC1 [Compound 24, 3-(cyclopentadecyloxy)-N,N-dimethylpropan-1-amine] | – | – | – | – | – | – | – | – | – | – | – | – | – | improved compared to 12 | – | –
8 | CC[C@H]1OC(=O)[C@H](C)[C@@H](O[C@H]2C[C@@](C)(OC)[C@@H](O)[C@H](C)O2)[C@H](C)[C@@H](O[C@@H]2O[C@H](C)C[C@H](N(C)C)[C@H]2O)[C@](C)(O)C[C@@H](C)C(=O)[C@H](C)[C@@H](O)[C@]1(C)O [Erythromycin, reference compound] | – | 6.2 µM (≈ 4.55 µg/mL) | < 0.8 µM | < 0.8 µM | > 100 µM | 25 µM (≈ 18.3 µg/mL) | < 0.8 µM | < 0.8 µM | < 0.8 µM | – | – | – | – | – | – | –
9 | CC1CC(N(C)C)C(O)C(OC2CCCCCCCCCCCCC2)O1 (stereo not shown) [Compound 10, 2-(cyclotetradecyloxy)-4-(dimethylamino)-6-methyltetrahydro-2H-pyran-3-ol] | 6 | 50 µM (≈ 18.5 µg/mL) | > 400 µM | 200 µM (≈ 73.9 µg/mL) | 400 µM (≈ 148 µg/mL) | > 400 µM | 50 µM (≈ 18.5 µg/mL) | 50 µM (≈ 18.5 µg/mL) | 400 µM (≈ 148 µg/mL) | – | – | 289 µM | displayed some inhibitory activities | – | – | –
10 | CC1CC(N(C)C)C(O)C(OC2CCCCCCCCCCCC2)O1 (stereo not shown) [Compound 8, 2-(Cyclotridecyloxy)-4-(dimethylamino)-6-methyltetrahydro-2H-pyran-3-ol] | 6 | 100 µM (≈ 35.6 µg/mL) | 400 µM (≈ 142 µg/mL) | 200 µM (≈ 71.1 µg/mL) | 200 µM (≈ 71.1 µg/mL) | > 400 µM | 50 µM (≈ 17.8 µg/mL) | 50 µM (≈ 17.8 µg/mL) | 200 µM (≈ 71.1 µg/mL) | – | – | 218 µM | displayed some inhibitory activities | – | 94% | –
11 | CC1CC(N(C)C)C(O)C(OC2CCCCC2)O1 (stereo not shown) [Compound 13, 2-(Cyclohexyloxy)-4-(dimethylamino)-6-methyltetrahydro-2H-pyran-3-ol] | 0 | > 400 µM | > 400 µM | > 400 µM | > 400 µM | > 400 µM | > 400 µM | > 400 µM | > 400 µM | – | – | – | – | – | – | –
12 | OC1CCCCCCCCCCC1 [Cyclododecanol, reference compound] | – | > 400 µM | > 400 µM | > 400 µM | > 400 µM | > 400 µM | > 400 µM | > 400 µM | > 400 µM | – | – | – | – | – | – | unable to serve as a substrate
13 | C#CCCCCCCCCCOC1OC(C)CC(N(C)C)C1O (stereo not shown) [Compound 18, 4-(dimethylamino)-6-methyl-2-(undec-10-ynyloxy)-tetrahydro-2H-pyran-3-ol] | – | > 400 µM | > 400 µM | > 400 µM | > 400 µM | > 400 µM | 400 µM (≈ 130 µg/mL) | > 400 µM | > 400 µM | – | – | – | – | – | – | –
